In PubChem BioAssay AID1845204 (Molecular Pharmacology Branch, DTP, NCI, 2023):
Several values for one entry are separate records, joined by “and”; a condition that tells them apart may be missing. Equal values may be shown once.

System: HSSY-II tumor spheroid viability
Assay: Anticancer human tumor HSSY-II cell line growth inhibition;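 also: spheroids exposed to compounds for seven days before reading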;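 as to viability, T/C: percent of DMSO vehicle control viability so 100% = untreated level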
Details: spheroids with HUVEC and MSC; for viability, T/C: stronger effect = lower value
How it was run: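 Complex tumor spheroids combined malignant cells with endothelial cells and mesenchymal stem cells. DNA-damaging drugs and DNA repair inhibitors were tested alone and in combination, at half-log dilutions down from clinical Cmax (top 10 microM if Cmax unknown), 0.25% DMSO final.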

[2H]c1nc(C)nc([2H])c1-c1cc(NC[C@@H](C)c2cccc3c(C(=O)NC)ccnc23)ncn1 + Cn1nnc2c(C(N)=O)ncn2c1=O
IC50 (curve of first compound, second compound 1 µM): > 10 µM | IC50 (curve of first compound, second compound 3.16 µM): > 10 µM | IC50 (curve of first compound, second compound 10 µM): > 10 µM | IC50 (curve of first compound, second compound 31.6 µM): > 10 µM | IC50 (curve of first compound, second compound 100 µM): > 10 µM | viability, T/C (second compound 1 µM, first compound 0.0316 µM): 103% | viability, T/C (second compound 1 µM, first compound 0.1 µM): 101% | viability, T/C (second compound 1 µM, first compound 0.316 µM): 100% | viability, T/C (second compound 1 µM, first compound 1 µM): 96.8% | viability, T/C (second compound 1 µM, first compound 3.16 µM): 93.8% | viability, T/C (second compound 1 µM, first compound 10 µM): 91.7% | viability, T/C (second compound 3.16 µM, first compound 0.0316 µM): 104% | viability, T/C (second compound 3.16 µM, first compound 0.1 µM): 100% | viability, T/C (second compound 3.16 µM, first compound 0.316 µM): 98.5% | viability, T/C (second compound 3.16 µM, first compound 1 µM): 107% | viability, T/C (second compound 3.16 µM, first compound 3.16 µM): 94.1% | viability, T/C (second compound 3.16 µM, first compound 10 µM): 90.8% | viability, T/C (second compound 10 µM, first compound 0.0316 µM): 98.2% | viability, T/C (second compound 10 µM, first compound 0.1 µM): 103% | viability, T/C (second compound 10 µM, first compound 0.316 µM): 101% | viability, T/C (second compound 10 µM, first compound 1 µM): 97.5% | viability, T/C (second compound 10 µM, first compound 3.16 µM): 95.3% | viability, T/C (second compound 10 µM, first compound 10 µM): 86.2% | viability, T/C (second compound 31.6 µM, first compound 0.0316 µM): 108% | viability, T/C (second compound 31.6 µM, first compound 0.1 µM): 102% | viability, T/C (second compound 31.6 µM, first compound 0.316 µM): 106% | viability, T/C (second compound 31.6 µM, first compound 1 µM): 102% | viability, T/C (second compound 31.6 µM, first compound 3.16 µM): 97.2% | viability, T/C (second compound 31.6 µM, first compound 10 µM): 94.4% | viability, T/C (second compound 100 µM, first compound 0.0316 µM): 91.1% | viability, T/C (second compound 100 µM, first compound 0.1 µM): 94.4% | viability, T/C (second compound 100 µM, first compound 0.316 µM): 95.2% | viability, T/C (second compound 100 µM, first compound 1 µM): 91.4% | viability, T/C (second compound 100 µM, first compound 3.16 µM): 90.9% | viability, T/C (second compound 100 µM, first compound 10 µM): 85%

O=C(c1cc(Cc2n[nH]c(=O)c3ccccc23)ccc1F)N1CCN(C(=O)C2CC2)CC1 + CC[C@@]1(O)C(=O)OCc2c1cc1n(c2=O)Cc2cc3c(CN(C)C)c(O)ccc3nc2-1
IC50 (curve of first compound, second compound 0.003 µM): 0.505 µM | IC50 (curve of first compound, second compound 0.00949 µM): < 0.0949 µM | IC50 (curve of first compound, second compound 0.03 µM): < 0.0949 µM | IC50 (curve of first compound, second compound 0.0949 µM): < 0.0949 µM | IC50 (curve of first compound, second compound 0.3 µM): < 0.0949 µM | viability, T/C (second compound 0.003 µM, first compound 0.0949 µM): 63.4% | viability, T/C (second compound 0.003 µM, first compound 0.3 µM): 56.4% | viability, T/C (second compound 0.003 µM, first compound 0.949 µM): 41.4% | viability, T/C (second compound 0.003 µM, first compound 3 µM): 18.8% | viability, T/C (second compound 0.003 µM, first compound 9.49 µM): 7.55% | viability, T/C (second compound 0.003 µM, first compound 30 µM): 7.59% | viability, T/C (second compound 0.00949 µM, first compound 0.0949 µM): 14.3% | viability, T/C (second compound 0.00949 µM, first compound 0.3 µM): 11.9% | viability, T/C (second compound 0.00949 µM, first compound 0.949 µM): 10.8% | viability, T/C (second compound 0.00949 µM, first compound 3 µM): 7.16% | viability, T/C (second compound 0.00949 µM, first compound 9.49 µM): 6.35% | viability, T/C (second compound 0.00949 µM, first compound 30 µM): 7% | viability, T/C (second compound 0.03 µM, first compound 0.0949 µM): 5.6% | viability, T/C (second compound 0.03 µM, first compound 0.3 µM): 5.95% | viability, T/C (second compound 0.03 µM, first compound 0.949 µM): 5.27% | viability, T/C (second compound 0.03 µM, first compound 3 µM): 6.36% | viability, T/C (second compound 0.03 µM, first compound 9.49 µM): 5.82% | viability, T/C (second compound 0.03 µM, first compound 30 µM): 6.47% | viability, T/C (second compound 0.0949 µM, first compound 0.0949 µM): 5.02% | viability, T/C (second compound 0.0949 µM, first compound 0.3 µM): 4.58% | viability, T/C (second compound 0.0949 µM, first compound 0.949 µM): 4.8% | viability, T/C (second compound 0.0949 µM, first compound 3 µM): 4.07% | viability, T/C (second compound 0.0949 µM, first compound 9.49 µM): 4.67% | viability, T/C (second compound 0.0949 µM, first compound 30 µM): 5.85% | viability, T/C (second compound 0.3 µM, first compound 0.0949 µM): 3.79% | viability, T/C (second compound 0.3 µM, first compound 0.3 µM): 4.17% | viability, T/C (second compound 0.3 µM, first compound 0.949 µM): 3.66% | viability, T/C (second compound 0.3 µM, first compound 3 µM): 4.24% | viability, T/C (second compound 0.3 µM, first compound 9.49 µM): 3.48% | viability, T/C (second compound 0.3 µM, first compound 30 µM): 4.55%

Cc1sc2c(c1C)C(c1ccc(Cl)cc1)=NC(CC(=O)Nc1ccc(O)cc1)c1nnc(C)n1-2 (configuration not stated)
viability, T/C (compound 0.00949 µM): 103% and 96.2% and 86.5% | viability, T/C (compound 0.03 µM): 91.5% and 82% and 79.4% | viability, T/C (compound 0.0949 µM): 71.5% and 60.6% and 61.9% | viability, T/C (compound 0.3 µM): 30.2% and 39.3% and 30.7% | viability, T/C (compound 0.949 µM): 18.2% and 16.5% and 16.8% | viability, T/C (compound 3 µM): 11.9% and 11.7% and 9.97% | IC50 (curve of compound): 0.173 µM and 0.161 µM and 0.146 µM
